≈ marks a conversion by molar mass, not a printed value. Where a name gives a salt, the structure may show the parent alone. Read-outs that look alike come from different tables or passages of the source.
Legend:
MRSA Pyk = target: T1, MRSA Pyk (Staphylococcus aureus, UniProt Q6GG09); test: MRSA pyruvate kinase (PK) activity, continuous LDH-coupled assay; assay type: biochemical, methicillin resistant S. aureus (MRSA252)
T1 construct: made in house; host or cells: E. coli BL-21 (DE3)
Outline: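 His-tagged MRSA PK (strain Sanger 252) and human PK isoforms expressed in E. coli BL-21 (DE3) and Ni-NTA purified, used at 15 nM in an LDH-coupled assay following NADH oxidation at 340 nm, 30° C, up to 5 min, ≤1% DMSO. IC50 from four-parameter variable-slope fit; Ki with PEP 2-20 mM, ADP fixed 2 mM, inhibitor 0-400 nM.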

K. pneumoniae (C238) = test: In vitro susceptibility, broth microdilution (MIC); assay type: cell-based; settings: Klebsiella pneumoniae, read-out: Antimicrobial activity (MIC) K. pneumoniae
Outline: (§1)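 CLSI 2-fold serial broth microdilution; K. pneumoniae C238 grown in L-broth, S. aureus ATCC 29213 in Mueller Hinton broth, plates incubated 18–24 h at 37 °C. MIC taken as lowest concentration giving complete growth inhibition by OD600 versus compound-free wells, background-subtracted.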

S. aureus (ATCC29213) = test: In vitro susceptibility, broth microdilution (MIC); assay type: cell-based; settings: Staphylococcus aureus
Outline: as §1

MRSA MW2 (USA400) = test: In vitro susceptibility, broth microdilution (MIC); assay type: cell-based, methicillin resistant S. aureus; settings: Staphylococcus aureus, read-out: Antimicrobial activity (MIC) MSRA USA400
Outline: (§2)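 MIC determined by CLSI 2-fold broth microdilution in cation-adjusted Mueller–Hinton broth at ~2.5×10^5 CFU/ml, final compound 0.031–64 μg/ml, 18–24 h at 37 °C. MIC is the lowest concentration giving complete growth inhibition by background-corrected OD600 versus compound-free wells; duplicate or triplicate wells, replicated at least twice.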

[1] = test system: A. baumannii (ATCC 17978); test: In vitro susceptibility, broth microdilution (MIC); assay type: cell-based; settings: Acinetobacter baumannii
Outline: as §2

VRE#2 (2010A) = test: In vitro susceptibility, broth microdilution (MIC); assay type: cell-based, vancomycin resistant Enterococci; settings: read-out: Antimicrobial activity (MIC) VRE#2
Outline: as §2

[2] = test system: A. baumannii (ATCC 19606); test: In vitro susceptibility, broth microdilution (MIC); assay type: cell-based; settings: Acinetobacter baumannii, ATCC19606; A. baumannii ATCC 19606 (values without asterisk); read-out: Antimicrobial activity (MIC) A. baumannii
Outline: as §2

MRSA (ATCC BAA-1762) = test: In vitro susceptibility, broth microdilution (MIC); assay type: cell-based, methicillin resistant S. aureus; settings: Staphylococcus aureus; MRSA ATCC BAA-1762; read-out: Antimicrobial activity (MIC) MRSA ATCC BAA1762
Outline: as §2

[3] = test system: S. typhimurium (ATCC BAA-185); test: In vitro susceptibility, broth microdilution (MIC); assay type: cell-based; settings: Salmonella enterica, read-out: Antimicrobial activity (MIC) S. typhimurium
Outline: as §2

[4] = S. aureus ATCC29213, 18-24 h, 37 C, read-out: Antimicrobial activity (MIC) S. aureus ATCC29213
[5] = ATCC17978, A. baumannii ATCC 17978 (values marked *), read-out: Antimicrobial activity (MIC) A. baumannii

T1 sequence (Q6GG09 whole entry): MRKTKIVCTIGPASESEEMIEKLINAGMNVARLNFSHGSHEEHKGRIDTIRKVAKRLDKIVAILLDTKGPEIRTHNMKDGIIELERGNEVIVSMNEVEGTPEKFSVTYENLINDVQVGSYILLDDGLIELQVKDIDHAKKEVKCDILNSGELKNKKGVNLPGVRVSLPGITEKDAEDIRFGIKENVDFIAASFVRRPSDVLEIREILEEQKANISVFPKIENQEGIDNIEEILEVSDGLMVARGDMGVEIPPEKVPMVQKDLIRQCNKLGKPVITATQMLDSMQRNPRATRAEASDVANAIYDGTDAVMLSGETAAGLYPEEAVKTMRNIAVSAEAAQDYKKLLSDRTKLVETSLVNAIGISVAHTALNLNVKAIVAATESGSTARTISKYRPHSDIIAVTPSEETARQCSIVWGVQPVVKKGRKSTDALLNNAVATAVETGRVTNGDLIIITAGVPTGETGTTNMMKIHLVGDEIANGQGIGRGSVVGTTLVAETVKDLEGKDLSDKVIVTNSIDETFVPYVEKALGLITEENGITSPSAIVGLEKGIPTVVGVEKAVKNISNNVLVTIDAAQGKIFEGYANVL

Row | SMILES | IC50 (MRSA Pyk) [nM] | MIC (K. pneumoniae (C238)) [µg/mL] | MIC (S. aureus (ATCC29213); [4]) [µg/mL] | MIC (MRSA MW2 (USA400); MRSA MW2 (USA400)) [µg/mL] | MIC [1, 5] [µg/mL] | MIC (VRE#2 (2010A); VRE#2 (2010A)) [µg/mL] | MIC (S. aureus (ATCC29213); ATCC29213, read-out: Antimicrobial activity (MIC) S. aureus ATCC29213) [µg/mL] | MIC (MRSA MW2 (USA400)) [µg/mL] | MIC ([1]; ATCC17978, read-out: Antimicrobial activity (MIC) A. baumannii) [µg/mL] | MIC (VRE#2 (2010A)) [µg/mL] | MIC (K. pneumoniae (C238); K. pneumoniae (C238)) [µg/mL] | MIC [2] [µg/mL] | MIC (MRSA (ATCC BAA-1762)) [µg/mL] | MIC [3] [µg/mL]
1 | CN(C)CCC(=O)c1c(/C=C/c2ccc(Cl)cc2)[nH]c2cc(Br)ccc12.Cl [Compound 6, (E)-1-(6-Bromo-2-(4-chlorostyryl)-1H-indol-3-yl)-3-(dimethylamino)propan-1-one Hydrochloride] | 100 to 1000 | 8 | 8 | 8 | 64 | 8 |  |  |  |  |  |  |  | 
2 | CN1CCN(CCC(=O)c2c(/C=C/c3ccc(Cl)cc3)[nH]c3cc(Br)ccc23)CC1 [Compound 7, (E)-1-(6-Bromo-2-(4-chlorostyryl)-1H-indol-3-yl)-3-(4-methylpiperazin-1-yl)propan-1-one Hydrochloride] | 100 to 1000 | 8 |  |  |  |  | 8 | 8 | > 64 | 8 |  |  |  | 
3 | Oc1cc(/C=C/c2cc3ccc(Br)cc3[nH]2)ccc1Cl [Compound 11, (E)-5-(2-(6-bromo-1H-indol-2-yl)vinyl)-2-chlorophenol] |  |  | 2 (≈ 5.74 µM) | 2 (≈ 5.74 µM) | > 64 |  |  |  |  |  | 4 (≈ 11.5 µM) |  |  | 
4 | CN(C)CCOc1cc(/C=C/c2cc3ccc(Br)cc3[nH]2)ccc1Cl [Compound 12, (E)-2-(5-(2-(6-bromo-1H-indol-2-yl)vinyl)-2-chlorophenoxy)-N,N-dimethylethanamine] | 100 to 1000 |  | 4 (≈ 9.53 µM) | 4 (≈ 9.53 µM) |  |  |  |  |  |  | 4 (≈ 9.53 µM) | 16 (≈ 38.1 µM) |  | 
5 | O=C(NCCC1CCC(O)CC1)c1c(/C=C/c2ccc(Cl)cc2)[nH]c2cc(Br)ccc12 (stereo not drawn) [Compound 41, (E)-6-Bromo-2-(4-chlorostyryl)-N-(2-(4-hydroxycyclohexyl)ethyl)-1H-indole-3-carboxamide] | < 100 |  | > 64 | > 64 |  | > 64 |  |  |  |  | > 64 |  |  | 
6 | CN1CCN(CCCNC(=O)c2c(/C=C/c3ccc(Cl)cc3)[nH]c3cc(Br)ccc23)CC1 [Compound 43, (E)-6-Bromo-2-(4-chlorostyryl)-N-(3-(4-methylpiperazin-1-yl)propyl)-1 H-indole-3-carboxamide] | < 100 |  | 32 (≈ 62 µM) | 32 (≈ 62 µM) |  | 16 (≈ 31 µM) |  |  |  |  | 32 (≈ 62 µM) |  |  | 
7 | CN1CCN(CCCCNC(=O)c2c(/C=C/c3ccc(Cl)cc3)[nH]c3cc(Br)ccc23)CC1 [Compound 44, (E)-6-Bromo-2-(4-chlorostyryl)-N-(4-(4-methylpiperazin-1-yl)butyl)-1 H-indole-3-carboxamide] | 100 to 1000 |  | 32 (≈ 60.4 µM) | 32 (≈ 60.4 µM) |  | 16 (≈ 30.2 µM) |  |  |  |  | 32 (≈ 60.4 µM) |  |  | 
8 | CN1CCN(CCOC(=O)c2c(/C=C/c3ccc(Cl)cc3)[nH]c3cc(Br)ccc23)CC1 [Compound 61, 2-(4-Methylpiperazin-1-yl)ethyl (E)-6-bromo-2-(4-chlorostyryl)-1H-indole-3-carboxylate] | 100 to 1000 |  | 4 (≈ 7.95 µM) | 4 (≈ 7.95 µM) | > 64 | 4 (≈ 7.95 µM) |  |  |  |  | 4 (≈ 7.95 µM) |  |  | 
9 | CN(C)CCc1c(-c2cc3cc(Cl)ccc3[nH]2)[nH]c2cc(Br)ccc12 [Compound 77, 2-(6-Bromo-5′-chloro-1H,1′H-[2,2′-biindol]-3-yl)-N,N-dimethylethan-1-amine] | < 100 | 4 (≈ 9.6 µM) | 4 (≈ 9.6 µM) | 4 (≈ 9.6 µM) |  |  |  |  |  |  |  |  |  | 
10 | COC(=O)C(=O)c1c(/C=C/c2ccc(Cl)cc2)[nH]c2cc(Br)ccc12 [Compound 86, (E)-Methyl 2-(6-bromo-2-(4-chlorostyryl)-1H-indol-3-yl)-2-oxoacetate] | < 100 |  | 64 (≈ 153 µM) | 64 (≈ 153 µM) |  | 64 (≈ 153 µM) |  |  |  |  | > 64 |  |  | 
11 | CNC(=O)C(=O)c1c(/C=C/c2ccc(Cl)cc2)[nH]c2cc(Br)ccc12 [Compound 87, (E)-2-(6-bromo-2-(4-chlorostyryl)-1H-indol-3-yl)-N-methyl-2-oxoacetamide] | < 100 |  | > 64 | > 64 |  | > 64 |  |  |  |  | > 64 |  |  | 
12 | O=C(Nc1c(/C=C/c2ccc(Cl)cc2)[nH]c2cc(Br)ccc12)C(F)(F)F [Compound 93, (E)-N-(6-bromo-2-(4-chlorostyryl)-1H-indol-3-yl)-2,2,2-trifluoroacetamide] | < 100 | > 64 | 32 (≈ 72.1 µM) | > 64 |  | 64 (≈ 144 µM) |  |  |  |  |  |  |  | 
13 | CC(=O)Nc1c(/C=C/c2ccc(Cl)cc2)[nH]c2cc(Br)ccc12 [Compound 94, (E)-N-(6-bromo-2-(4-chlorostyryl)-1H-indol-3-yl)acetamide] | 100 to 1000 |  | 32 (≈ 82.1 µM) | > 64 |  | > 64 |  |  |  |  | > 64 |  |  | 
14 | O=C(CO)Nc1c(/C=C/c2ccc(Cl)cc2)[nH]c2cc(Br)ccc12 [Compound 95, (E)-N-(6-bromo-2-(4-chlorostyryl)-1H-indol-3-yl)-2-hydroxyacetamide] | 100 to 1000 |  | 32 (≈ 78.9 µM) | 64 (≈ 158 µM) |  | 64 (≈ 158 µM) |  |  |  |  | 64 (≈ 158 µM) |  |  | 
15 | CC(=O)Nc1c(CCc2ccc(Cl)cc2)[nH]c2cc(Br)ccc12 [Compound 96, N-(6-Bromo-2-(4-chlorophenethyl)-1H-indol-3-yl)acetamide] | > 1000 |  | 64 (≈ 163 µM) | > 64 |  | > 64 |  |  |  |  | > 64 |  |  | 
16 | CN1CCN(CCNC(=O)CCCC(=O)c2c(-c3cc4cc(Cl)ccc4[nH]3)[nH]c3cc(Br)ccc23)CC1 [Compound 106, 5-(6-bromo-5′-chloro-1H,1′H-[2,2′-biindol]-3-yl)-N-(2-(4-methylpiperazin-1-yl)ethyl)-5-oxopentanamide] | < 100 |  | 8 (≈ 13.7 µM) | 8 (≈ 13.7 µM) |  | 8 (≈ 13.7 µM) |  |  |  |  | 8 (≈ 13.7 µM) | > 64 |  | 
17 | CN(C)CCNC(=O)CCCC(=O)c1c(-c2cc3cc(Cl)ccc3[nH]2)[nH]c2cc(Br)ccc12 [Compound 107, 5-(6-bromo-5′-chloro-1H,1′H-[2,2′-biindol]-3-yl)-N-(2-(dimethylamino)ethyl)-5-oxopentanamide] | < 100 |  | 4 (≈ 7.55 µM) | 4 (≈ 7.55 µM) |  | 4 (≈ 7.55 µM) |  |  |  |  | 4 (≈ 7.55 µM) |  |  | 
18 | O=C(O)CCCC(=O)c1c(-c2cc3cc(Cl)ccc3[nH]2)[nH]c2cc(-c3cc4cc(Cl)ccc4[nH]3)ccc12 [Compound 108, 5-(5,5″-dichloro-1H,1′H,1″H-[2,2′:6′,2″-terindol]-3′-yl)-5-oxopentanoic Acid] | > 1000 |  | 1 (≈ 1.89 µM) | 2 (≈ 3.77 µM) |  | 2 (≈ 3.77 µM) |  |  |  |  | 2 (≈ 3.77 µM) |  |  | 
19 | CC(C)c1nc2c(cc1-c1ccc(Cl)cc1)[nH]c1cc(Br)ccc12 [Compound 114, 7-bromo-3-(4-chlorophenyl)-2-isopropyl-5H-pyrido[3,2-b]indole] | 100 to 1000 |  | 32 (≈ 80.1 µM) | 8 (≈ 20 µM) |  | 4 (≈ 10 µM) |  |  |  |  | 8 (≈ 20 µM) |  |  | 
20 | CN(C)CCOc1cc2[nH]c(-c3cc4ccc(Br)cc4[nH]3)cc2cc1Cl [Compound 199, 2-((6′-Bromo-5-chloro-1H,1′H-[2,2′-biindol]-6-yl)oxy)-N,N-dimethylethan-1-amine] | < 100 |  | 4 (≈ 9.24 µM) |  |  | 4 (≈ 9.24 µM) |  |  |  |  |  | 8 (≈ 18.5 µM) | 4 (≈ 9.24 µM) | 32 (≈ 73.9 µM)
21 | O=C(O)CCNC(=O)c1c(-c2cc3cc(Cl)ccc3[nH]2)[nH]c2cc(Br)ccc12 [Compound 205, 3-(6-Bromo-5′-chloro-1H,1′H-[2,2′-biindole]-3-carboxamido)propanoic Acid] | < 100 |  | 32 (≈ 69.5 µM) | 32 (≈ 69.5 µM) | > 64 |  |  |  |  |  |  |  | 64 (≈ 139 µM) | 
22 | Clc1cc2nc(-c3cc4ccc(Br)cc4[nH]3)[nH]c2cc1Cl [Compound 207, 2-(6-Bromo-1H-indol-2-yl)-5,6-dichloro-1H-benzo[d]imidazole] | < 100 |  | 0.5 (≈ 1.31 µM) | 1 (≈ 2.62 µM) |  | 32 (≈ 84 µM) |  |  |  |  | 16 (≈ 42 µM) | > 64 |  | 

Reference: patent US20180312493A1, “Antibiotic Compounds, Pharmaceutical Formulations Thereof And Methods And Uses Therefor” (Simon Fraser University, priority 2015, published 2018)
